One test has as its target TRPC1 protein (Homo sapiens, UniProt P48995). The test can be described thus: MST binding to TRPC1 protein. The conditions noted are these: for Kd: MST; for affinity strength to TRPC6 protein higher than to TRPC1 protein: MST Kd ratio. The procedure:
(§1) Preparation and labelling of protein solution: TRPC6 protein dry powder (Alomone Labs, Israel) was prepared into a protein mother solution at a concentration of 10 μM using PBS-Buffer, and 35 μL of the protein stock solution was taken to the Buffer exchange A column, and centrifuged to obtain the Tris-removed protein. 34 μL Labelling Buffer was added to the Tris-removed protein according to the instructions of the Protein Fluorescent Labelling Kit (model L001). After mixing well, 3 μL of NT-647-NHS fluorescent dye was added and thus obtained mixture was incubated for 20 minutes. The protein-dye mixture was transferred to the purification B column, 300 μL of PBS-Buffer was added, and the target protein, i.e. fluorescent labelled protein TRPC6, was collected by centrifugation (with a final concentration of about 2 μM). 180 μL of target protein was mixed with 1620 μL of PBS-Buffer, and then 9 μl of Tween-20 were added thereto. Thus the resulting mixture was mixed and then centrifuged to obtain the target protein solution.
(§2) Preparation of compound solutions: the compounds were prepared separately with DMSO to storage solutions with a concentration of […]. 10 μL of each storage solution was placed in a […] EP tube, 90 μL of PBS was added thereto and the resulting mixture was thoroughly mixed to prepare 100 μL of working solution at a concentration of 1 μM for later use. Ligand gradient dilutions were made for a total of 16 concentrations, and 10 μL of 10% DMSO-Buffer was added to each of the 15 gradients except gradient 1, followed by the addition of 10 μL of ligand working solution to gradients 1 and 2, respectively. The liquid in tube 2 was mixed and then 10 μL therein was taken into tube 3, and dilution was carried out in this manner until tube 16. Tube 16 was mixed and 10 μL therein was taken and discarded, and the remainder was kept for later use.
(§3) Detection and analysis: 10 μL of protein solution was added to the 16 compound gradient dilutions respectively and mixed, and the resultant mixtures were transferred to capillary tubes sequentially to start detection on machine. After loading the data, the MST analysis model and Kd Model were selected to obtain the fitting curve and dissociation constant (Kd).
(§4) The binding ability of the compounds of the present invention (as exemplified by the compounds 1-1 and 2-1 obtained in Examples 1 and 3) for other TRPC proteins (e.g., TRPC1, TRPC3, TRPC4, TRPC5, and TRPC7) was determined using the microscale thermophoresis (MST) method. The method was as follows:
(§5) The affinity of the compounds of the present invention with TRPC1, TRPC3, TRPC4, TRPC5 and TRPC7 proteins, respectively, was determined by the same method as in Example 5.

In another test the target is T1, TRPC3 protein (Homo sapiens, UniProt Q13507).
T1 sequence (Q13507 1-921): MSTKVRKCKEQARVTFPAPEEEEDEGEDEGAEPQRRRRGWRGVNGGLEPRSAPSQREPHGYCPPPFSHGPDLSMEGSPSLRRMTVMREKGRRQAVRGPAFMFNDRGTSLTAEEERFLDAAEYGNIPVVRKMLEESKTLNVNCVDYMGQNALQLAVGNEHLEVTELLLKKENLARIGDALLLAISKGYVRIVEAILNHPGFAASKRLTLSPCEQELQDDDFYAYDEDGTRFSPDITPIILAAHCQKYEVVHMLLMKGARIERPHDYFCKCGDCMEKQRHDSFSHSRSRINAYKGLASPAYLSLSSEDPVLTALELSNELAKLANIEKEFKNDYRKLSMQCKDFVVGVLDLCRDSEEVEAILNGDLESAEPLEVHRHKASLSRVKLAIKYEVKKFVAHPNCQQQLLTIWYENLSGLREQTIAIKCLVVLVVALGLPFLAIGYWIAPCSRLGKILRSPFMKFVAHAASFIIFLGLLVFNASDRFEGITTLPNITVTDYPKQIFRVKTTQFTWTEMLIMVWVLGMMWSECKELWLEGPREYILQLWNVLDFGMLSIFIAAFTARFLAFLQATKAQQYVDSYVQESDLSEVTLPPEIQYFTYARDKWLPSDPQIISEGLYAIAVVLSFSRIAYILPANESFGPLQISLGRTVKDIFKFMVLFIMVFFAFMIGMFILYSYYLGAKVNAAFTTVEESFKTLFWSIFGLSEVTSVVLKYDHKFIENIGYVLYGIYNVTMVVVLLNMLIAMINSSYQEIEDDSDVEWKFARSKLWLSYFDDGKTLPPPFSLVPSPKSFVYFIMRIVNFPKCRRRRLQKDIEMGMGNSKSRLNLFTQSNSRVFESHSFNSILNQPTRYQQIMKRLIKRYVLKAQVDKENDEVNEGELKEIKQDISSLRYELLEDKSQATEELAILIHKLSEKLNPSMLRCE
In words: MST binding to TRPC3 protein. Conditions: for affinity strength to TRPC6 protein higher than to TRPC3 protein: MST Kd ratio. On the procedure:
as §1, §2, §3, §4, §5

In another test the target is T2, TRPC7 protein (Homo sapiens, UniProt Q9HCX4).
T2 sequence (Q9HCX4 1-862): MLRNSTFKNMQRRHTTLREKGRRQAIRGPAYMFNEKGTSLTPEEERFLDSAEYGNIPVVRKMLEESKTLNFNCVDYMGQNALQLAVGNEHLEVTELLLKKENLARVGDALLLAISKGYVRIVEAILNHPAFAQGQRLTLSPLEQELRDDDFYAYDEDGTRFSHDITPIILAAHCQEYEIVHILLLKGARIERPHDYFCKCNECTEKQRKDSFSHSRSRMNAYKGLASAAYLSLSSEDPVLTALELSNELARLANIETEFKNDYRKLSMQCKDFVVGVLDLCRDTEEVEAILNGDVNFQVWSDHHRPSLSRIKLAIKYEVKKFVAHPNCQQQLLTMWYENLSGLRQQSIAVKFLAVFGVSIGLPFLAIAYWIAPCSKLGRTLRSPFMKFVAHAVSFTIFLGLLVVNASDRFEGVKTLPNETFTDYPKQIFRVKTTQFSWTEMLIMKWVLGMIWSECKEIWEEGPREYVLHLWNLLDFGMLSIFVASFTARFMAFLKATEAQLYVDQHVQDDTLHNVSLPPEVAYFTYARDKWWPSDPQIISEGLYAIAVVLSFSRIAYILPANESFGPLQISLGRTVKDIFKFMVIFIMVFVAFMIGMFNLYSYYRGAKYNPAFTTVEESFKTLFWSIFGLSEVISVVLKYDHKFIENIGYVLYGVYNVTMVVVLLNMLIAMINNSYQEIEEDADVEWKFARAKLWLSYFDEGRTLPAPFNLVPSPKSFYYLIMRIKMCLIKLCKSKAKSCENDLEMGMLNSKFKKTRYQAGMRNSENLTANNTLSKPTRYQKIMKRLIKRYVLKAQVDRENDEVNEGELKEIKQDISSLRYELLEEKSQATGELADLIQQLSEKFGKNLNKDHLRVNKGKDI
The test can be described thus: MST binding to TRPC7 protein. The conditions noted are these: for Kd: MST; for affinity strength to TRPC6 protein higher than to TRPC7 protein: MST Kd ratio. On the procedure: as §1, §2, §3, §4, §5

Usually Kd stands for the equilibrium constant for the complex coming apart. The low end stands for a tighter complex, the high end for a looser complex.

TRPC1 protein, sequence (P48995 whole entry, species assumed): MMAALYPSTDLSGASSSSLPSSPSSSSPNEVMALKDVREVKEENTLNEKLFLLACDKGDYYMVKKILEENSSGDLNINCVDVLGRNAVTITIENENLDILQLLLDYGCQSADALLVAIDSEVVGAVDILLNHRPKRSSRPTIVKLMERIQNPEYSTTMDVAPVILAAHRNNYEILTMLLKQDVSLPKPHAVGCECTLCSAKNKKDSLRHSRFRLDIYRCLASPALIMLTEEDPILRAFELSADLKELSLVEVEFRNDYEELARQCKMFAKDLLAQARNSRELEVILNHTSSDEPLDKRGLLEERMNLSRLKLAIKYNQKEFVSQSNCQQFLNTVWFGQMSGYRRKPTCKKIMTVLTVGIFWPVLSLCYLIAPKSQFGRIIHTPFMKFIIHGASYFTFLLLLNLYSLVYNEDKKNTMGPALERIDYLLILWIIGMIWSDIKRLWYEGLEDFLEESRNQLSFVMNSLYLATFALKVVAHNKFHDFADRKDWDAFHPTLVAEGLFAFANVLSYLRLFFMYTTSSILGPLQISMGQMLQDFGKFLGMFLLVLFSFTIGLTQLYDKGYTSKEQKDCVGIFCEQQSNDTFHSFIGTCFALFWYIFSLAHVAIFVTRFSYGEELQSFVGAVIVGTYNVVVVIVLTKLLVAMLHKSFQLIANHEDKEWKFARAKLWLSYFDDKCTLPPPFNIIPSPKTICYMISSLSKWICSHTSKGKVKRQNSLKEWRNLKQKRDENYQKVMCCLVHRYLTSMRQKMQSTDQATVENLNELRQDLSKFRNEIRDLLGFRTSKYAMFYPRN

In the case of `Cn1c(C(=O)NCCC(=O)O)cc2ccccc21` [3-[(1-methyl-1H-indole-2-carbonyl)amino]propionic acid, reference compound], at TRPC1 protein, the affinity, expressed as Kd, was 1940 nM and the “affinity strength to TRPC6 protein higher than to TRPC1 protein” value (from here on “affinity strength … to TRPC1 protein”) is 65 fold. The “affinity strength to TRPC6 protein higher than to TRPC3 protein” value (shortened to “affinity strength … to TRPC3 protein”) on TRPC3 protein amounted to 27 fold. Also, on TRPC7 protein, the Kd stood at 1040 nM and the “affinity strength to TRPC6 protein higher than to TRPC7 protein” value (“affinity strength … to TRPC7 protein” below) came to 35 fold.
As to `CC(=O)OCCCNC(=O)c1c(C=O)c2ccccc2n1C` [compound 1-1, propyl 3-[(3-formyl-1-methyl-1H-indole-2-carbonyl)amino]acetate], at TRPC1 protein, binding was put at a Kd of 2940 nM and the “affinity strength … to TRPC1 protein” value came to 245 fold. For the same compound, the “affinity strength … to TRPC3 protein” value on TRPC3 protein is recorded as 81 fold. In addition, on TRPC7 protein, the Kd was determined as 3040 nM and the “affinity strength … to TRPC7 protein” value is listed as 254 fold.
`Cn1c(C(=O)NCCCOC(=O)c2ccccc2)c(C=O)c2ccccc21` [compound 2-1]: the Kd on TRPC1 protein amounted to 2400 nM; at TRPC3 protein (MST), 1400 nM; at TRPC7 protein, 3210 nM. The “affinity strength … to TRPC1 protein” value on TRPC1 protein amounted to 155 fold. Moreover, the “affinity strength … to TRPC3 protein” value at TRPC3 protein is listed as 51 fold. The “affinity strength … to TRPC7 protein” value on TRPC7 protein came to 160 fold.

The values are drawn from patent publication US12692232B2, “Indole carboxamide compound, preparation therefor and use thereof” (NANJING RUISHUNING MEDICAL TECHNOLOGY CO., LTD., priority 2021, dated 2026).
